According to patent US9522886B2, “Pyridine derivatives” (Hoffmann-La Roche Inc., priority 2012, dated 2016):

Experiments:
[1] = biological target: human CB1 receptors (Homo sapiens (Human), UniProt P21554); assay: cAMP assay, CHO cells expressing human CB1 receptors; assay type: cell-based; conditions: functional cAMP assay, CHO cells expressing human CB1; read-out: human CB1 EC50
Description: (§1) CHO cells expressing human CB1 or CB2 receptors are seeded 17-24 hours prior to the experiment 50.000 cells per well in a black 96 well plate with flat clear bottom (Corning Costar #3904) in DMEM (Invitrogen No. 31331), 1×HT supplement, with 10% fetal calf serum and incubated at 5% CO2 and 37° C. in a humidified incubator. The growth medium was exchanged with Krebs Ringer Bicarbonate buffer with 1 mM IBMX and incubated at 30° C. for 30 min. Compounds were added to a final assay volume of 100 μl and incubated for 30 min at 30° C. Using the cAMP-Nano-TRF detection kit the assay (Roche Diagnostics) was stopped by the addition of 50 μl lysis reagent (Tris, NaCl, 1.5% Triton X100, 2.5% NP40, 10% NaN3) and 50 μl detection solutions (20 μM mAb Alexa700-cAMP 1:1, and 48 μM Ruthenium-2-AHA-cAMP) and shaken for 2 h at room temperature. The time-resolved energy transfer is measured by a TRF reader (Evotec Technologies GmbH), equipped with a ND:YAG laser as excitation source. The plate is measured twice with the excitation at 355 nm and at the emission with a delay of 100 ns and a gate of 100 ns, total exposure time 10 s at 730 (bandwidth 30 nm) or 645 nm (bandwidth 75 nm), respectively.
(§2) EC50 values were determined using Activity Base analysis (ID Business Solution, Limited).

[2] = biological target: human CB2 receptors (Homo sapiens (Human), UniProt P34972); assay: cAMP assay, CHO cells expressing human CB2 receptors; assay type: cell-based; conditions: functional cAMP assay, CHO cells expressing human CB2; read-out: human CB2 EC50
Sequence of human CB2 receptors (P34972 whole entry): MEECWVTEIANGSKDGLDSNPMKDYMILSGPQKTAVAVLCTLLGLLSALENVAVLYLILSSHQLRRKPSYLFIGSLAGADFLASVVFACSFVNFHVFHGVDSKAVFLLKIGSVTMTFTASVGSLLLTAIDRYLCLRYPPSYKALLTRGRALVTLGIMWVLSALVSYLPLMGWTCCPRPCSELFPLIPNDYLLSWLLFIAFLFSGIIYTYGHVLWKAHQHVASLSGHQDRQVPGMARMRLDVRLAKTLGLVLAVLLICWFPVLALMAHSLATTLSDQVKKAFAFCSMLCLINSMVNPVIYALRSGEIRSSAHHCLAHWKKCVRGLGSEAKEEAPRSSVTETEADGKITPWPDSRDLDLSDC
Description: as §1, §2

Sequence of human CB1 receptors (P21554 whole entry): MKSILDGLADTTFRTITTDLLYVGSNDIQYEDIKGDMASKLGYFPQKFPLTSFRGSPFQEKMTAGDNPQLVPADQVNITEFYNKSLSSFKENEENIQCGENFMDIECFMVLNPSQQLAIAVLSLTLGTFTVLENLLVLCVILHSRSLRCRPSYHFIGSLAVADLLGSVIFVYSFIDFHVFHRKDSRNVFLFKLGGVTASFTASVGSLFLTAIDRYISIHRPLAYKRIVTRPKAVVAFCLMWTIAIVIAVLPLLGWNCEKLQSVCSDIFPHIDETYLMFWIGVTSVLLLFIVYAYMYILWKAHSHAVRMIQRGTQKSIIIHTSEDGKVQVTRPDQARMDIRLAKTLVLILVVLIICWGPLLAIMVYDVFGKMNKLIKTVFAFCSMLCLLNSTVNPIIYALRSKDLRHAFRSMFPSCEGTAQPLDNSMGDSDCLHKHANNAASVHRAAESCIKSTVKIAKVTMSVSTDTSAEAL

CC(C)CC(CNC(=O)c1ccc(N2CC(F)(F)C2)c(OCC2CC2)n1)C(=O)O (stereo not shown) [Example 11, 2-[({[6-(Cyclopropylmethoxy)-5-(3,3-difluoroazetidin-1-yl)pyridin-2-yl]carbonyl}amino)methyl]-4-methylpentanoic acid]
EC50 [1]: > 10000 nM
EC50 [2]: 967 nM

CC(C)[C@H](CC(N)=O)NC(=O)c1ccc(N2CC(F)(F)C2)c(OCC2CC2)n1 [Example 19, 6-Cyclopropylmethoxy-5-(3,3-difluoro-azetidin-1-yl)-pyridine-2-carboxylic acid ((S)-1-carbamoylmethyl-2-methyl-propyl)-amide]
EC50 [1]: > 10000 nM
EC50 [2]: 3.2 nM

NC(=O)[C@H]1CCCC[C@H]1NC(=O)c1ccc(N2CC(F)(F)C2)c(OCC2CC2)n1 [Example 21, (−)-cis-6-Cyclopropylmethoxy-5-(3,3-difluoro-azetidin-1-yl)-pyridine-2-carboxylic acid (2-carbamoyl-cyclohexyl)-amide]
EC50 [1]: > 10000 nM
EC50 [2]: 407 nM

CCOC(=O)CC(CC(C)C)NC(=O)c1ccc(C2CC2)c(OCC2CC2)n1 (stereo not shown) [Example 22, 3-[(5-Cyclopropyl-6-cyclopropylmethoxy-pyridine-2-carbonyl)-amino]-5-methyl-hexanoic acid ethyl ester]
EC50 [1]: > 10000 nM
EC50 [2]: 11.9 nM

NC(=O)CC1(NC(=O)c2ccc(C3CC3)c(OCC3CC3)n2)COC1 [Example 23, 5-Cyclopropyl-6-cyclopropylmethoxy-pyridine-2-carboxylic acid (3-carbamoylmethyl-oxetan-3-yl)-amide]
EC50 [1]: > 10000 nM
EC50 [2]: 1.4 nM

CC(C)C[C@@H](CC(N)=O)NC(=O)c1ccc(C2CC2)c(OCC2CC2)n1 [Example 24, (−)-5-Cyclopropyl-6-cyclopropylmethoxy-pyridine-2-carboxylic acid (1-carbamoylmethyl-3-methyl-butyl)-amide]
EC50 [1]: > 10000 nM
EC50 [2]: 3 nM

CC(C)C[C@H](CC(N)=O)NC(=O)c1ccc(C2CC2)c(OCC2CC2)n1 [Example 25, (+)-5-Cyclopropyl-6-cyclopropylmethoxy-pyridine-2-carboxylic acid (1-carbamoylmethyl-3-methyl-butyl)-amide]
EC50 [1]: > 10000 nM
EC50 [2]: 4.3 nM

NC(=O)CC1(NC(=O)c2ccc(N3CC(F)(F)C3)c(OCC3CC3)n2)COC1 [Example 26, 6-Cyclopropylmethoxy-5-(3,3-difluoro-azetidin-1-yl)-pyridine-2-carboxylic acid (3-carbamoylmethyl-oxetan-3-yl)-amide]
EC50 [1]: > 10000 nM
EC50 [2]: 5.65 nM

CC(C)(C)[C@@H](CC(N)=O)NC(=O)c1ccc(C2CC2)c(OCC2CC2)n1 [Example 29, 5-Cyclopropyl-6-cyclopropylmethoxy-pyridine-2-carboxylic acid ((R)-1-carbamoylmethyl-2,2-dimethyl-propyl)-amide]
EC50 [1]: > 10000 nM
EC50 [2]: 23.2 nM

NC(=O)CC(NC(=O)c1ccc(C2CC2)c(OCC2CC2)n1)C1CCOCC1 (stereo not shown) [Example 30, 5-Cyclopropyl-6-cyclopropylmethoxy-pyridine-2-carboxylic acid [2-carbamoyl-1-(tetrahydro-pyran-4-yl)-ethyl]-amide]
EC50 [1]: > 10000 nM
EC50 [2]: 8.3 nM

CC(Oc1nc(C(=O)NC2(CC(N)=O)COC2)ccc1C1CC1)C(F)(F)F (stereo not shown) [Example 33, 5-Cyclopropyl-6-(2,2,2-trifluoro-1-methyl-ethoxy)-pyridine-2-carboxylic acid (3-carbamoylmethyl-oxetan-3-yl)-amide]
EC50 [1]: > 10000 nM
EC50 [2]: 145 nM

CC(C)(C)[C@H](CC(N)=O)NC(=O)c1ccc(C2CC2)c(OCC2CC2)n1 [Example 35, 5-Cyclopropyl-6-cyclopropylmethoxy-pyridine-2-carboxylic acid ((S)-1-carbamoylmethyl-2,2-dimethyl-propyl)-amide]
EC50 [1]: 209 nM
EC50 [2]: 0.6 nM

CC(C)CS(=O)(=O)c1nc(C(=O)NC2(CC(N)=O)COC2)ccc1C1CC1 [Example 36, 5-Cyclopropyl-6-(2-methyl-propane-1-sulfonyl)-pyridine-2-carboxylic acid (3-carbamoylmethyl-oxetan-3-yl)-amide]
EC50 [1]: > 10000 nM
EC50 [2]: 255 nM

CNC(=O)CC1(NC(=O)c2ccc(N3CC(F)(F)C3)c(OCC3CC3)n2)COC1 [Example 37, 6-Cyclopropylmethoxy-5-(3,3-difluoro-azetidin-1-yl)-pyridine-2-carboxylic acid (3-methylcarbamoylmethyl-oxetan-3-yl)-amide]
EC50 [1]: > 10000 nM
EC50 [2]: 363 nM

CNC(=O)CC1(NC(=O)c2ccc(C3CC3)c(OCC3CC3)n2)COC1 [Example 38, 5-Cyclopropyl-6-cyclopropylmethoxy-pyridine-2-carboxylic acid (3-methylcarbamoylmethyl-oxetan-3-yl)-amide]
EC50 [1]: > 10000 nM
EC50 [2]: 101 nM

CNC(=O)CC1(NC(=O)c2ccc(C(F)(F)F)c(OCC3CC3)n2)COC1 [Example 39, 6-Cyclopropylmethoxy-5-trifluoromethyl-pyridine-2-carboxylic acid (3-methylcarbamoylmethyl-oxetan-3-yl)-amide]
EC50 [1]: > 10000 nM
EC50 [2]: 599 nM

CN(C)C(=O)CC1(NC(=O)c2ccc(C3CC3)c(OCC3CC3)n2)COC1 [Example 40, 5-Cyclopropyl-6-cyclopropylmethoxy-pyridine-2-carboxylic acid (3-dimethylcarbamoylmethyl-oxetan-3-yl)-amide]
EC50 [1]: > 10000 nM
EC50 [2]: 345 nM

CN(C)C(=O)CC1(NC(=O)c2ccc(N3CC(F)(F)C3)c(OCC3CC3)n2)COC1 [Example 41, 6-Cyclopropylmethoxy-5-(3,3-difluoro-azetidin-1-yl)-pyridine-2-carboxylic acid (3-dimethylcarbamoylmethyl-oxetan-3-yl)-amide]
EC50 [1]: > 10000 nM
EC50 [2]: 298 nM

CN(C)C(=O)CC1(NC(=O)c2ccc(C(F)(F)F)c(OCC3CC3)n2)COC1 [Example 42, 6-Cyclopropylmethoxy-5-trifluoromethyl-pyridine-2-carboxylic acid (3-dimethylcarbamoylmethyl-oxetan-3-yl)-amide]
EC50 [1]: > 10000 nM
EC50 [2]: 967 nM

NC(=O)C[C@@H](NC(=O)c1ccc(C2CC2)c(OCC2CC2)n1)c1cccc(Cl)c1 [Example 43, 5-Cyclopropyl-6-cyclopropylmethoxy-pyridine-2-carboxylic acid [(R)-2-carbamoyl-1-(3-chloro-phenyl)-ethyl]-amide]
EC50 [1]: > 10000 nM
EC50 [2]: 105 nM

CC(C)[S+]([O-])c1nc(C(=O)NC2(CC(N)=O)COC2)ccc1Br (stereo not shown) [Example 44, 5-Bromo-6-(propane-2-sulfinyl)-pyridine-2-carboxylic acid (3-carbamoylmethyl-oxetan-3-yl)-amide]
EC50 [1]: > 10000 nM
EC50 [2]: 413 nM

COC(=O)CC1(NC(=O)c2ccc(C3CC3)c(OCC3CC3)n2)CCN(C(=O)OC(C)(C)C)CC1 [Example 45, 4-[(5-Cyclopropyl-6-cyclopropylmethoxy-pyridine-2-carbonyl)-amino]-4-methoxycarbonylmethyl-piperidine-1-carboxylic acid tert-butyl ester]
EC50 [1]: > 10000 nM
EC50 [2]: 237 nM

NC(=O)CC1(NC(=O)c2ccc(OC(F)(F)F)c(OCC3CC3)n2)COC1 [Example 46, 6-Cyclopropylmethoxy-5-trifluoromethoxy-pyridine-2-carboxylic acid (3-carbamoylmethyl-oxetan-3-yl)-amide]
EC50 [1]: > 10000 nM
EC50 [2]: 31.4 nM
